Test results: patent publication US20050282743A1, “Molecular interactions in cells” (Arbor Vita Corporation, priority 2001, published 2005)
pKd: −log10 of the molar value. Where two headings read alike, the source gives them in different places. Ends that are not written are not given here. Peptide text beside a SMILES is read from it. * marks the point of attachment. Biotin = O=C1N[C@H]2[C@H](CS[C@H]2CCCCC(=O)*)N1

Experiments:
Format in all cases: binding
[1] = biological target: T1, PDZ protein (GST-PDZ fusion) (Homo sapiens, UniProt O15085); assay: G' assay (10 uM PL peptide), results of TABLE 7 and TABLE 12; settings: PDZ KIAA0380, PDZ Domain 1
T1 construct: made in house; host or cells: E. coli (DH5alpha, BL21 or JM109)
In short: (§1)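 Biotinylated PL peptides at 10 uM (vs 20 uM in G^0 assay) bound to GST-PDZ fusions; PDZ protein at 5 ug/ml unless another concentration listed. Bound peptide read as A450 nm, classified 0–5 (0 = A450 0; 5 = A450 >4 repeated).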

[2] = biological target: T2, PDZ protein (GST-PDZ fusion) (Homo sapiens, UniProt Q12959); assay: as above
T2 construct: made in house; host or cells: E. coli (DH5alpha, BL21 or JM109)
In short: as §1

[3] = biological target: PDZ-domain polypeptide (GST/PDZ fusion protein); assay: Apparent affinity (Kd) by titration of PL peptide in the G assay
In short: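 A fixed concentration of GST/PDZ fusion protein, 5 ug/ml by default, was mixed in solution with increasing labeled PL peptide (e.g. 0.1 uM-1 mM). Reaction times ranged from 10 minutes to 2 days at 4-37° C. Complexes were separated from free peptide and detected via the label as in the G assay, apparent affinity coming from the saturating concentration.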

[4] = biological target: T3, KIAA0807(S) (PDZ Domain 1) (Homo sapiens, UniProt Q6P0Q8); assay: G' assay and Kd titration, TABLE 12; settings: for Classification: A450 nm class of biotinylated PL peptide bound, 0 in conc columns = peptide 10 uM, protein 5 ug/ml
T3 construct: made in house; host or cells: E. coli (DH5alpha, BL21 or JM109)
T3 sequence (Q6P0Q8 with tags, fused parts or gaps): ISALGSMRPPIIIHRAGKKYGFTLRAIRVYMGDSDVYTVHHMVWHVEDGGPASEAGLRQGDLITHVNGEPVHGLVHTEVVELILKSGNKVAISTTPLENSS
Description: The third column labeled “Peptide Optimal Concentration” in the tables is a number reflective of the binding interaction between the PL protein and PDZ protein. […] The column labeled “Protein Optimal Concentration” refers to the protein concentration used to assay PL interaction (in ug/ml); a ‘0’ is indicative of 5 ug/ml protein concentration; any other value represents the concentration (in ug/ml) used to determine the dissociation constant for a given interaction.
Finally, the seventh column labeled “Classification” is another measure of the level of binding. In particular, it provides an absorbance value at 450 nm which indicates the amount of PL peptide bound to the PDZ protein. The following numerical values have the following meanings: ‘1’—A450 nm 0-1; ‘2’—A450 nm 1-2; ‘3’—A450 nm 2-3; ‘4’—A450 nm 3-4; ‘5’—A450 nm of 4 more than 2× repeated; ‘0’—A450 nm 0, i.e., not found to interact. Thus, higher numbers indicate stronger interactions.
For convenience, the assay conditions described in this section are referred to as the “G′ assay” and the “G″ assay,” with the specific conditions described in the preceding section on G assays being referred to as the “G^0 assay.” The “G′ assay” is identical to the “G^0 assay” except at step (2) the peptide concentration is 10 uM instead of 20 uM.

T2 sequence (Q12959 whole entry, the tested form may be a part): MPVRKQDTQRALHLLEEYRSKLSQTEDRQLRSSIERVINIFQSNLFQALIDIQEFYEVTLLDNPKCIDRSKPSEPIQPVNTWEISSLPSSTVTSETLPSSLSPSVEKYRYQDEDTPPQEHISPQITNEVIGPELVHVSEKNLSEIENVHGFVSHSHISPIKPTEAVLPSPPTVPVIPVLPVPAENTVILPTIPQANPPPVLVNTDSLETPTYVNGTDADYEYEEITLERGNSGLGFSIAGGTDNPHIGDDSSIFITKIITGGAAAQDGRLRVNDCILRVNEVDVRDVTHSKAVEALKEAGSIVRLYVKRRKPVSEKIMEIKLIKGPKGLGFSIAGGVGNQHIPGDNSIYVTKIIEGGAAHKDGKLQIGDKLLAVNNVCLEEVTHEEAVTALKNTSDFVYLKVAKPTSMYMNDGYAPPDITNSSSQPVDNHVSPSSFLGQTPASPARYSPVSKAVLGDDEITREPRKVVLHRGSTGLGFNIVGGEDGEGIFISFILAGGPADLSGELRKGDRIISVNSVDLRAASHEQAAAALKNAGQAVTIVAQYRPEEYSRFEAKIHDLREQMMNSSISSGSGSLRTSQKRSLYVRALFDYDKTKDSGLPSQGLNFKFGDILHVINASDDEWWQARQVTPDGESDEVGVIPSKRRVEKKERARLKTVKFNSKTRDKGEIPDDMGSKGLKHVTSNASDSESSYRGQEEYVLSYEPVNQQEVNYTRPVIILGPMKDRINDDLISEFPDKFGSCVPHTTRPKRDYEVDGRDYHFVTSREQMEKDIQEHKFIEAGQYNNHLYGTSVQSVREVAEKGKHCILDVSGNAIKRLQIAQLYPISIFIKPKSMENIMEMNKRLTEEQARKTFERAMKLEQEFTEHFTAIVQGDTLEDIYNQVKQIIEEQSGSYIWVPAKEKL
T1 sequence (O15085 whole entry, the tested form may be a part): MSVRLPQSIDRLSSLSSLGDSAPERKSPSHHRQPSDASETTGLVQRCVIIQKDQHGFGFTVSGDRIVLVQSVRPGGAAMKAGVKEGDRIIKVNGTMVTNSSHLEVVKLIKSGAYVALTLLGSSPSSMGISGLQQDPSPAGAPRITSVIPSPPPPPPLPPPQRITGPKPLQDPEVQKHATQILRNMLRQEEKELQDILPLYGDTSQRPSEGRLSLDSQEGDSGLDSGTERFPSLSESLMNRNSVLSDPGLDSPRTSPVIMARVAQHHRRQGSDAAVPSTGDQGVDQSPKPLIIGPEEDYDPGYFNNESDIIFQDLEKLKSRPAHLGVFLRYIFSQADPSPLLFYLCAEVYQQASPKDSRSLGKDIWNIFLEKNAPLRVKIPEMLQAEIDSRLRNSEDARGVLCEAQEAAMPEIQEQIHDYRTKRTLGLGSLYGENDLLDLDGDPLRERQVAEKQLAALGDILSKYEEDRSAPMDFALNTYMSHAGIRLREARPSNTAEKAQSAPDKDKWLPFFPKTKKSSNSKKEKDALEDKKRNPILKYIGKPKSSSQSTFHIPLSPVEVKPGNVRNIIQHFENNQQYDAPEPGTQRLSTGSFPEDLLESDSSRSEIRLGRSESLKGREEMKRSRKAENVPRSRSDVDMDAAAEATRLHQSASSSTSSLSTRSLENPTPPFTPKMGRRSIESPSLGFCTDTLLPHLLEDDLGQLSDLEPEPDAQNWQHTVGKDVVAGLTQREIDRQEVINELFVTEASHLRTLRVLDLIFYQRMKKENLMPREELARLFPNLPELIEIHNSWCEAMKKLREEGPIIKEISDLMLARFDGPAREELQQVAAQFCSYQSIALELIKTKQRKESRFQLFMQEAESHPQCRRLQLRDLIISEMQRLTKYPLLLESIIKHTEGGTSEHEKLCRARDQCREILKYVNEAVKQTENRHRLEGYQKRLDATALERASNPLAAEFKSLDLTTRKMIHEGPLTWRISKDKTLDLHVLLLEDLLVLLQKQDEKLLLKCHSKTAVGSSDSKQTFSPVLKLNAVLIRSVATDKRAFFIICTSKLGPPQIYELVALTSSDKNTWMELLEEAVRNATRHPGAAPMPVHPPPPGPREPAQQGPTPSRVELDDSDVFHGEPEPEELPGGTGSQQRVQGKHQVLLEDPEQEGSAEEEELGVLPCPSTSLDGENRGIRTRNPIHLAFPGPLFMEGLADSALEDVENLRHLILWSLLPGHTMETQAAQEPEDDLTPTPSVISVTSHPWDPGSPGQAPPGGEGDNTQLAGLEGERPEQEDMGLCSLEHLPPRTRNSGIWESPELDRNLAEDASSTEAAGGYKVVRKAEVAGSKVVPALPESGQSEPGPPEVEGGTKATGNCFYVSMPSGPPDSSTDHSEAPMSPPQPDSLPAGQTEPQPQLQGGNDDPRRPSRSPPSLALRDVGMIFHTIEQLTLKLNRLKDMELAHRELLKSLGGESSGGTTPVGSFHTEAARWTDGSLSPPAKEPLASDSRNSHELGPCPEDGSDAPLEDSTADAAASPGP

RNIEEVYVGGKQVVPFSSSV (Biotin-RNIEEVYVGGKQVVPFSSSV) [Nedasin (s-form)]
Classification [1]: 1 (A450 nm 0-1) | Classification ([2]; PDZ DLG1, PDZ Domain 1, 2): 3 (A450 nm 2-3)

CC(C)C[C@H](NC(=O)CNC(=O)[C@@H](NC(=O)[C@H](CO)NC(=O)[C@H](CC(N)=O)NC(=O)[C@H](Cc1ccccc1)NC(=O)CNC(=O)[C@H](C)NC(=O)[C@H](C)NC(=O)[C@H](Cc1ccccc1)NC(=O)[C@@H](NC(=O)CCCC[C@@H]1SC[C@@H]2NC(=O)N[C@@H]21)[C@@H](C)O)[C@@H](C)O)C(=O)N1CCC[C@H]1C(=O)N[C@@H](Cc1c[nH]cn1)C(=O)N[C@@H](CO)C(=O)N[C@H](C(=O)N[C@H](C(=O)N[C@@H](CCCNC(=N)N)C(=O)N[C@H](C(=O)O)C(C)C)[C@@H](C)O)[C@@H](C)O [Neuroligin] (Biotin-TFAAGFNSTGLPHSTTRV-OH; C-terminus assumed)
Classification ([2]; PDZ DLG1, PDZ Domain 1, 2): 2 (A450 nm 1-2) | pKd ([3]; PDZ SHANK, PDZ Domain 1, read-out: Peptide Optimal Conc (Kd by titration of the PL peptide)): 6.52 | Classification [4]: 3 (A450 nm 2-3)

CC(C)C[C@H](NC(=O)[C@H](C)NC(=O)[C@@H](NC(=O)[C@@H](NC(=O)[C@H](Cc1c[nH]cn1)NC(=O)[C@H](CC(C)C)NC(=O)CNC(=O)[C@H](CCC(N)=O)NC(=O)CNC(=O)CNC(=O)[C@H](C)NC(=O)[C@H](C)NC(=O)[C@H](CCCNC(=N)N)NC(=O)[C@H](C)NC(=O)[C@H](CO)NC(=O)[C@H](CC(=O)O)NC(=O)[C@H](CC(=O)O)NC(=O)[C@H](Cc1c[nH]c2ccccc12)NC(=O)[C@H](C)NC(=O)CCCC[C@@H]1SC[C@@H]2NC(=O)N[C@@H]21)C(C)C)[C@@H](C)O)C(=O)O [LPAP] (Biotin-AWDDSARAAGGQGLHVTAL-OH; C-terminus assumed)
pKd ([3]; PDZ FLJ 00011, PDZ Domain 1, read-out: Peptide Optimal Conc (Kd by titration of the PL peptide)): 5.82 | Classification [4]: 5 (A450 nm of 4 more than 2× repeated)

QATSRNGHSARQHVVADTEL (Biotin-QATSRNGHSARQHVVADTEL) [CD34]
Classification [4]: 3 (A450 nm 2-3)

CC[C@H](C)[C@H](NC(=O)[C@H](CO)NC(=O)[C@H](CCC(=O)O)NC(=O)[C@H](Cc1ccc(O)cc1)NC(=O)[C@H](CC(=O)O)NC(=O)[C@H](CC(N)=O)NC(=O)[C@H](CCC(=O)O)NC(=O)[C@H](CCCCN)NC(=O)CCCC[C@@H]1SC[C@@H]2NC(=O)N[C@@H]21)C(=O)N[C@@H](CO)C(=O)N[C@@H](CC(=O)O)C(=O)N[C@@H](CC(C)C)C(=O)N[C@@H](CCC(N)=O)C(=O)N[C@@H](CCC(N)=O)C(=O)NCC(=O)N[C@@H](CCCNC(=N)N)C(=O)N[C@@H](CC(=O)O)C(=O)N[C@H](C(=O)N[C@H](C(=O)N[C@@H](CCCNC(=N)N)C(=O)N[C@@H](CC(C)C)C(=O)O)[C@@H](C)O)[C@@H](C)CC [PAG] (Biotin-KENDYESISDLQQGRDITRL-OH; C-terminus assumed)
Classification [4]: 5 (A450 nm of 4 more than 2× repeated) | pKd ([4]; titration of PL peptide, KIAA0807(S) protein 0.5 ug/ml, read-out: Peptide Optimal Conc (Kd)): 6.46

CC[C@H](C)[C@H](NC(=O)[C@H](CO)NC(=O)[C@@H](NC(=O)[C@H](Cc1ccccc1)NC(=O)[C@H](CO)NC(=O)CCCC[C@@H]1SC[C@@H]2NC(=O)N[C@@H]21)[C@@H](C)O)C(=O)N[C@@H](CC(C)C)C(=O)N[C@H](C(=O)N[C@@H](CS)C(=O)N[C@@H](Cc1c[nH]cn1)C(=O)N[C@@H](CCC(N)=O)C(=O)N[C@@H](CCCNC(=N)N)C(=O)N[C@@H](CCCNC(=N)N)C(=O)N[C@H](C(=O)N[C@@H](CCC(N)=O)C(=O)N[C@@H](CCCNC(=N)N)C(=O)N[C@@H](CCCCN)C(=O)N[C@@H](CCC(=O)O)C(=O)N[C@H](C(=O)N[C@H](C(=O)N[C@@H](C)C(=O)O)C(C)C)[C@@H](C)O)[C@@H](C)O)[C@@H](C)O [GluR5-2 (rat)]
Classification ([2]; PDZ DLG1, PDZ Domain 1): 2 (A450 nm 1-2) | Classification ([2]; PDZ DLG1, PDZ Domain 1, 2): 5 (A450 nm of 4 more than 2× repeated) | Classification ([2]; PDZ DLG1, PDZ Domain 2): 2 (A450 nm 1-2) | Classification ([2]; PDZ DLG1, PDZ Domain 3): 1 (A450 nm 0-1) | pKd ([3]; PDZ BAI-1, PDZ Domain 2, titration of the PL peptide, read-out: Peptide Optimal Conc (Kd, dissociation constant)): 6.52

LASKSAEEGKQIPDSLSTDL (Biotin-LASKSAEEGKQIPDSLSTDL) [Dock2]
Classification [4]: 4 (A450 nm 3-4)

CC[C@H](C)[C@H](NC(=O)[C@H](C)NC(=O)[C@H](CC(C)C)NC(=O)[C@H](Cc1c[nH]c2ccccc12)NC(=O)[C@H](Cc1c[nH]cn1)NC(=O)[C@H](CCC(N)=O)NC(=O)[C@H](CC(C)C)NC(=O)[C@H](CCC(N)=O)NC(=O)[C@H](Cc1ccccc1)NC(=O)[C@H](CCC(N)=O)NC(=O)[C@H](CCCNC(=N)N)NC(=O)[C@@H](NC(=O)[C@H](CC(=O)O)NC(=O)[C@H](CCCNC(=N)N)NC(=O)[C@H](CCC(N)=O)NC(=O)[C@H](C)NC(=O)[C@@H](NC(=O)[C@H](CC(C)C)NC(=O)[C@H](Cc1c[nH]cn1)NC(=O)[C@H](Cc1c[nH]cn1)NC(=O)CCCC[C@@H]1SC[C@@H]2NC(=O)N[C@@H]21)C(C)C)[C@@H](C)CC)C(=O)O [noradrenaline transporter] (Biotin-HHLVAQRDIRQFQLQHWLAI-OH; C-terminus assumed)
Classification [1]: 1 (A450 nm 0-1)

CC(C)C[C@H](NC(=O)[C@H](C)NC(=O)[C@H](CO)NC(=O)CNC(=O)[C@@H](NC(=O)CCCC[C@@H]1SC[C@@H]2NC(=O)N[C@@H]21)[C@@H](C)O)C(=O)N[C@@H](CCC(N)=O)C(=O)N[C@@H](C)C(=O)N[C@@H](Cc1c[nH]c2ccccc12)C(=O)N[C@@H](CCCNC(=N)N)C(=O)N[C@@H](Cc1c[nH]cn1)C(=O)N[C@H](C(=O)N[C@@H](CO)C(=O)N[C@@H](CCCNC(=N)N)C(=O)N[C@@H](CCC(N)=O)C(=O)N[C@@H](C)C(=O)N[C@H](C(=O)N[C@@H](CCC(=O)O)C(=O)N[C@@H](CO)C(=O)N[C@H](C(=O)N[C@H](C(=O)O)C(C)C)[C@@H](C)O)[C@@H](C)O)[C@@H](C)O [HPV E6 #66 (modified)] (Biotin-TGSALQAWRHTSRQATESTV-OH; C-terminus assumed)
Classification ([2]; PDZ DLG1, PDZ Domain 1): 4 (A450 nm 3-4) | Classification ([2]; PDZ DLG1, PDZ Domain 1, 2): 5 (A450 nm of 4 more than 2× repeated) | Classification ([2]; PDZ DLG1, PDZ Domain 2): 5 (A450 nm of 4 more than 2× repeated) | pKd ([3]; PDZ BAI-1, PDZ Domain 2, read-out: Peptide Optimal Conc (Kd by titration of the PL peptide)): 5.52

CC[C@H](C)[C@H](NC(=O)[C@H](CCCCN)NC(=O)[C@@H](NC(=O)[C@H](CO)NC(=O)[C@@H]1CCCN1C(=O)[C@H](Cc1ccccc1)NC(=O)[C@@H](NC(=O)[C@@H](NC(=O)[C@H](CCCNC(=N)N)NC(=O)[C@H](CCC(=O)O)NC(=O)[C@H](CC(C)C)NC(=O)[C@H](CC(C)C)NC(=O)[C@H](CC(C)C)NC(=O)[C@@H](NC(=O)CNC(=O)[C@@H](NC(=O)CCCC[C@@H]1SC[C@@H]2NC(=O)N[C@@H]21)C(C)C)[C@@H](C)O)C(C)C)[C@@H](C)CC)C(C)C)C(=O)N[C@@H](C)C(=O)N[C@H](C(=O)N[C@@H](CC(C)C)C(=O)N[C@H](C(=O)O)C(C)C)[C@@H](C)O [Adenovirus E4 Type9]
Classification ([2]; PDZ DLG1, PDZ Domain 1, 2, PL peptide 10 uM): 5 (A450 nm of 4 more than 2× repeated) | Classification ([2]; PDZ DLG1, PDZ Domain 1, Protein Optimal Conc 0.5): 4 (A450 nm 3-4) | Classification ([2]; PDZ DLG1, PDZ Domain 2, Protein Optimal Conc 0.3): 5 (A450 nm of 4 more than 2× repeated) | pKd ([3]; PDZ BAI-1, PDZ Domain 2, Protein Optimal Conc 0.3, read-out: Peptide Optimal Conc (Kd by titration of the PL peptide)): 7.70 | pKd ([3]; PDZ BAI-1, PDZ Domain 3, Protein Optimal Conc 0.5, read-out: Peptide Optimal Conc (Kd by titration of the PL peptide)): 7.12 | pKd ([3]; PDZ BAI-1, PDZ Domain 4, Protein Optimal Conc 0.3, read-out: Peptide Optimal Conc (Kd by titration of the PL peptide)): 7.00 | pKd ([3]; PDZ HEMBA 1003117, PDZ Domain 1, Protein Optimal Conc 5, read-out: Peptide Optimal Conc (Kd by titration of the PL peptide)): 6.52

CC[C@H](C)[C@H](NC(=O)[C@H](CCC(N)=O)NC(=O)CCCC[C@@H]1SC[C@@H]2NC(=O)N[C@@H]21)C(=O)N[C@@H](CO)C(=O)N1CCC[C@H]1C(=O)NCC(=O)NCC(=O)N[C@@H](CC(C)C)C(=O)N[C@@H](CCC(=O)O)C(=O)N1CCC[C@H]1C(=O)N1CCC[C@H]1C(=O)N[C@@H](CO)C(=O)N[C@@H](CCC(=O)O)C(=O)N[C@@H](CCCCN)C(=O)N[C@@H](Cc1c[nH]cn1)C(=O)N[C@@H](Cc1ccccc1)C(=O)N[C@@H](CCCNC(=N)N)C(=O)N[C@@H](CCC(=O)O)C(=O)N[C@H](C(=O)N[C@@H](CCC(=O)O)C(=O)N[C@H](C(=O)O)C(C)C)[C@@H](C)O [Tax]
Classification ([2]; PDZ DLG1, PDZ Domain 1): 5 (A450 nm of 4 more than 2× repeated) | Classification ([2]; PDZ DLG1, PDZ Domain 2): 5 (A450 nm of 4 more than 2× repeated) | Classification [4]: 5 (A450 nm of 4 more than 2× repeated)
